Test results from patent publication US20240269170A1, “Treatment of Inflammatory Conditions or Diseases” (Queen Mary University of London, priority 2021, published 2024).

System: mononuclear phagocytes
Experiment: Phosphoproteomic analysis of GM-CSF differentiated human monocytes incubated with MCTR3 vs vehicle
Assay type: cell-based
Experimental: FIG. 5: MCTR3 reprograms the arthritic monocyte-derive macrophage transcriptome. A-B) Arthritis was induced and prolonged in C57BL/6 mice by administering 100 μL K/B×N serum i.p. on day 0, 2 and 9. Mice were treated on day 12 i.v. with 2×10^6 monocytes isolated from arthritic mice and incubated either with vehicle (PBS+0.1% DMSO) or 10 μM RG108, a DNMT inhibitor, for 15 min and then with a vehicle (PBS+0.1% EtOH) or 1 nM MCTR3 for 90 min (37° C.). Disease course was monitored daily by assessing A) clinical scores and B) oedema. Results are mean±SEM and expressed as percent change from day of treatment. n=10 mice per group. Statistical differences were evaluated using Two-way ANOVA. (C-E) K/B×N serum (100 μL, i.p.) was administered to mice on days 0, 2 and 9 to induce and prolong inflammatory arthritis. On day 12, mice were treated i.v. with 2×10^6 monocytes isolated from arthritic mice that were previously incubated with either vehicle (PBS+0.1% EtOH) or 1 nM MCTR3 for 90 min. Cells were isolated from paw joints on day 22, sorted for CD45^+ cells and single cell RNA sequencing was performed. […] Results are from n=4 mice per group. (F-G) Monocytes were isolated from human healthy volunteers, these cells were then incubated with GM-CSF (7 days, 37° C.) then with either Vehicle or MCTR3 (1 nM, 37° C.). Cells were lysed and the phosphoproteome determined using mass spectrometry. (F) GO Biological pathway analysis and (G) KEGG pathway analysis for proteins found to be differentially phosphorylated in cells incubated with MCTR3 when compared to those incubated with vehicle. Results are representative of cells from n=3 healthy volunteers per group
To further explore the mechanisms regulated by MCTR3 to reprogram mononuclear phagocytes we next evaluated the signaling pathways activated by MCTR3 using a phosphoproteomic approach. […] This regulation was also observed when using the Kyoto Encyclopaedia of Genes and Genomes pathway database that highlighted an enrichment of spliceosome linked proteins as well as proteins involved in mRNA surveillance by MCTR3. (FIG. 5G and Table 7). […] These findings indicate that MCTR3 promotes the reprograming of mononuclear phagocytes by both regulating epigenetic programs and protein translation to facilitate the termination of inflammation and joint protection. They also support the hypothesis that MCTR3-reprogrammed monocytes recruited into arthritic joints exert their activities via the upregulation of tissue protective pathways. […]
For evaluation of signalling pathways activated by MCTR3, monocytes were isolated from peripheral blood of healthy volunteers, incubated with GM-CSF (20 ng/ml, in RPMI containing 10% human serum) for 7 days and then incubated with MCTR3 (1 nM, in DPBS^+/+).
Phosphoproteomics experiments were performed using mass spectrometry. In brief, cells were lysed in 8M urea buffer and supplemented with phosphatase inhibitors (10 mM Na3VO4, 100 mM B-glycerol phosphate and 25 mM Na2H2P2O7 (Sigma)). Proteins were digested into peptides using trypsin. Phosphopeptides were enriched from total peptides by TiO2 chromatography. Dried phosphopeptides were dissolved in 0.1% TFA and analysed by nanoflow ultimate 3000 RSL nano instrument was coupled on-line to a Q Exactive plus mass spectrometer (Thermo Fisher Scientific). Gradient elution was from 3% to 35% buffer B in 120 min at a flow rate 300 nL/min with buffer A being used to balance the mobile phase (buffer A was 0.1% formic acid in water and B was 0.1% formic acid in acetonitrile). The spray voltage was 1.95 kV and the capillary temperature was set to 255° C. The Q-Exactive plus was operated in data dependent mode with one survey MS scan followed by 15 MS/MS scans. The full scans were acquired in the mass analyser at 375-1500m/z with the resolution of 70 000, and the MS/MS scans were obtained with a resolution of 17 500. […]

[1] = KEGG Pathway, differentially phosphorylated proteins, 1 nM MCTR3 vs vehicle
[2] = Reactome Gene Sets, differentially phosphorylated proteins, 1 nM MCTR3 vs vehicle

CC/C=C\C/C=C\C[C@H](O)[C@@H](/C=C/C=C/C=C\C/C=C\CCC(=O)O)SC[C@H](N)C(=O)O [MCTR3, 13R-cysteinyl, 14S-hydroxy-4Z, 7Z, 9E, 11E, 13R, 14S, 16Z, 19Z-docosahexaenoic acid]
phosphorylation status of SETD2, Histone deacetylase 1 and Histone deacetylase 2 (1 nM MCTR3): regulated | proteins involved in post-transcriptional regulation and protein translation (differential phosphorylation, GO analysis) (1 nM MCTR3): marked regulation | Endocytosis (ko04144) enrichment LogP [1]: −3.117 | Fc gamma R-mediated phagocytosis (ko04666) enrichment LogP [1]: −2.545 | Glycolysis, core module involving three-carbon compounds (M00002) enrichment LogP [1]: −4.6043 | Guanine ribonucleotide biosynthesis IMP => GDP, GTP (M00050) enrichment LogP [1]: −3.0343 | Herpes simplex infection (ko05168) enrichment LogP [1]: −2.0881 | Neurotrophin signaling pathway (ko04722) enrichment LogP [1]: −2.6025 | Notch signaling pathway (ko04330) enrichment LogP [1]: −4.0393 | Spliceosome (hsa03040) enrichment LogP [1]: −7.662 | Transcriptional misregulation in cancer (ko05202) enrichment LogP [1]: −2.704 | mRNA surveillance pathway (ko03015) enrichment LogP [1]: −3.284 | parathyroid hormone synthesis, secretion and action (hsa04928) enrichment LogP [1]: −2.088 | Apoptotic execution phase (R-HSA-75153) enrichment LogP [2]: −3.842 | COPII-mediated vesicle transport (R-HSA-204005) enrichment LogP [2]: −2.4 | Diseases of signal transduction by growth factor receptors and second messengers (R-HSA-5663202) enrichment LogP [2]: −4.434 | Estrogen-dependent gene expression (R-HSA-9018519) enrichment LogP [2]: −2.633 | Formation of RNA Pol II elongation complex (R-HSA-112382) enrichment LogP [2]: −4.381 | Initiation of Nuclear Envelope (NE) Reformation (R-HSA-2995383) enrichment LogP [2]: −3.748 | Interferon gamma signaling (R-HSA-877300) enrichment LogP [2]: −2.545 | Nervous system development (R-HSA-9675108) enrichment LogP [2]: −3.151 | Neutrophil degranulation (R-HSA-6798695) enrichment LogP [2]: −2.465 | Prolonged ERK activation events (R-HSA-169893) enrichment LogP [2]: −2.935 | RHO GTPase Effectors (R-HSA-195258) enrichment LogP [2]: −3.726 | Regulation of MECP2 expression and activity (R-HSA-9022692) enrichment LogP [2]: −6.229 | SUMO E3 ligases SUMOylate target proteins (R-HSA-3108232) enrichment LogP [2]: −6.009 | Signaling by NTRKs (R-HSA-166520) enrichment LogP [2]: −5.116 | TRAF3-dependent IRF activation pathway (R-HSA-918233) enrichment LogP [2]: −2.935 | Transcriptional Regulation by TP53 (R-HSA-3700989) enrichment LogP [2]: −7.191 | Vesicle-mediated transport (R-HSA-5653656) enrichment LogP [2]: −6.611 | p75 NTR receptor-mediated signalling (R-HSA-193704) enrichment LogP [2]: −6.512
